Reference: patent US6544996B2, “1-phenyl-4-(1-[2-aryl]cyclopropyl) methylpiperazines: dopamine receptor ligands” (Neurogen Corporation, priority 1999, dated 2003)

How the values were obtained:
[1] = biological target: T1, recombinantly produced D4 receptors from human (COS cells) (Homo sapiens, UniProt P21917); test: Determination of D4 receptor binding activity (3H-YM 09151-2 displacement)
T1 construct: expressed in transfected cells; host or cells: COS cells
T1 sequence (P21917 1-419): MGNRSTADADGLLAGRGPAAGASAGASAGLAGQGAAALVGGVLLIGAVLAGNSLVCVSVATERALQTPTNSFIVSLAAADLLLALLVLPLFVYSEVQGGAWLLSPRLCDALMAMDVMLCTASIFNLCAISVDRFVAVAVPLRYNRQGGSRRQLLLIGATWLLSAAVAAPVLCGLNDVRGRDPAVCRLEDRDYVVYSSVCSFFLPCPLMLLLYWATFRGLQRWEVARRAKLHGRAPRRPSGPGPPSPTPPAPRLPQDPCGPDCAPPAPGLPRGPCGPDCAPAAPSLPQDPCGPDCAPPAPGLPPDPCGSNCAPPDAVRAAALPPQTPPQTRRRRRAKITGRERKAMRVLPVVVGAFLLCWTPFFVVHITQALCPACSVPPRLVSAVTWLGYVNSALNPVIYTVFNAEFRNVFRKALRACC
Procedure: (§1) Pellets of COS cells containing recombinantly produced D2 or D4 receptors from human are used for the assays. The sample is homogenized in 100 volumes (w/vol) of 0.05 M Tris HCl buffer at 4° C. and pH 7.4. The sample is then centrifuged at 30,000×g and resuspended and rehomogenized. The sample is then centrifuged as described and the final tissue sample is frozen until use. The tissue is resuspended […] (wt/vol) in 0.05 M Tris HCl buffer containing 100 mM NaCl.

[2] = biological target: T2, recombinantly produced D2 receptors from human (COS cells) (Homo sapiens, UniProt P14416); test: biochemical; assay type: binding; conditions: COS cell pellets, 0.5 nM 3H-YM 09151-2
T2 construct: expressed in transfected cells; host or cells: COS cells
Procedure: as §1

T2 sequence (P14416 whole entry): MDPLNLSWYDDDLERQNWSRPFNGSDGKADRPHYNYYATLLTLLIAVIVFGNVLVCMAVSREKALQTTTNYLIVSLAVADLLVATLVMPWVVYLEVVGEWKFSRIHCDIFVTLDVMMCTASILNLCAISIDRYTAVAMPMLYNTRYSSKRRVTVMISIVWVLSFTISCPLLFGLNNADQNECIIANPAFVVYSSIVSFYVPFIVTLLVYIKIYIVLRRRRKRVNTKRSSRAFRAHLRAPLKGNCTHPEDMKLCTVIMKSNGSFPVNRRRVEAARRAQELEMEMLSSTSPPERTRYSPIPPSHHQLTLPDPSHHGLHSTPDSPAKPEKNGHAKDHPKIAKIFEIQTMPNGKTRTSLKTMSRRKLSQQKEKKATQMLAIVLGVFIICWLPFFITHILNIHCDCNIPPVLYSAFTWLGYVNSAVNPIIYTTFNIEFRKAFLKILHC

melting point [°C]	Compound	Ki [1] [nM]	Ki [2] [nM]
182 to 183	Br.Cc1cc(Br)ccc1N1CCN(C[C@@H]2C[C@H]2c2ccccc2)CC1 (relative stereo)		
197 to 198	Br.Cc1cc([N+](=O)[O-])ccc1N1CCN(C[C@@H]2C[C@H]2c2ccccc2)CC1 (relative stereo)		
284 to 285	Br.Cc1cc(N)ccc1N1CCN(C[C@@H]2C[C@H]2c2ccccc2)CC1 (relative stereo)		
	Clc1ccc([C@H]2C[C@@H]2CN2CCN(c3ccc(Cl)cc3)CC2)cc1 (relative stereo) [Compound 3, 1-(4-chlorophenyl)-4-(trans-2-[4-chlorophenyl]cyclopropyl)methylpiperazine]	8	523
